Experimental data as given in patent US20150105252A1, “SUBSTITUTED PYRAZOLES AS HERBICIDES” (E I DU PONT DE NEMOURS AND COMPANY, priority 2013, published 2015).

Key:
foxtail, giant [1] = assay: Test A preemergence; assay type: in vivo, Setaria faberii; settings: 0 to 100 scale
In short: (§1)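 After sowing in a sand–loam mix, pots received compound preemergence by directed soil spray, or postemergence once plants reached the one- to two-leaf stage (2–10 cm). Formulation contained surfactant in a non-phytotoxic solvent. Injury was scored visually after ~10 greenhouse days, 0–100 scale.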

pigweed [2] = assay: Test A preemergence; assay type: in vivo, Amaranthus retroflexus; settings: 0 to 100 scale
In short: as §1

crabgrass, large = assay: Test A postemergence; assay type: in vivo, Digitaria sanguinalis
In short: as §1

corn = assay: Test A postemergence; assay type: in vivo, Zea mays
In short: as §1

blackgrass [3] = assay: Test C postemergence; assay type: in vivo, Alopecurus myosuroides; settings: for Blackgrass plant response rating: Postemergence, 31 g ai/ha, scale 0 to 100; for Plant response rating, Blackgrass: postemergence
In short: (§2)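 In this greenhouse assay, seeded soil (loam plus sand) or emerged seedlings in peat-vermiculite medium were treated with formulated compound. Roughly two weeks later (13–15 days), each species was scored visually relative to controls, from 0 for no effect to 100 for complete control.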

wheat = assay: Test C postemergence; assay type: in vivo, Triticum aestivum; settings: postemergence; for Wheat plant response rating: 62 g ai/ha, scale 0 to 100
Excerpt: (§3) Seeds of plant species selected from blackgrass (Alopecurus myosuroides), ryegrass, Italian (Italian ryegrass, Lolium multiflorum), wheat (winter wheat, Triticum aestivum), galium (catchweed bedstraw, Galium aparine), corn (Zea mays), crabgrass, large (large crabgrass, Digitaria sanguinalis), foxtail, giant (giant foxtail, Setaria faberii), johnsongrass (Sorghum halepense), lambsquarters (Chenopodium album), morningglory (Ipomoea coccinea), nutsedge, yellow (yellow nutsedge, Cyperus esculentus), pigweed (redroot pigweed, Amaranthus retroflexus), ragweed (common ragweed, Ambrosia elation), soybean (Glycine max), barnyardgrass (Echinochloa crus-galli), oilseed rape (Brassica napus), waterhemp (common waterhemp, Amaranthus rudis), oat, wild (wild oat, Avena fatua), kochia (Kochia scoparia), Surinam grass (Brachiaria decumbens), foxtail, green (green foxtail, Setaria viridis), goosegrass (Eleusine indica), bromegrass, downy (downy bromegrass, Bromus tectorum), nightshade (eastern black nightshade, Solanum ptycanthum), cocklebur (common cocklebur, Xanthium strumarium), cupgrass, woolly (woolly cupgrass, Eriochloa villosa), bermudagrass (Cynodon dactylon), sunflower, (common oilseed sunflower, Helianthus annuus), Russian thistle (Salsola kali), and velvetleaf (Abutilon theophrasti) were planted into a blend of loam soil and sand and treated preemergence with test chemicals formulated in a non-phytotoxic solvent mixture which included a surfactant.
(§4) At the same time, plants selected from these crop and weed species and also chickweed (common chickweed, Stellaria media), canarygrass (littleseed canarygrass, Phalaris minor), and deadnettle (henbit deadnettle, Lamium amplexicaule), were planted in pots containing Redi-Earth® planting medium (Scotts Company, 14111 Scottslawn Road, Marysville, Ohio 43041) comprising spaghnum peat moss, vermiculite, wetting agent and starter nutrients and treated with postemergence applications of test chemicals formulated in the same manner. Plants ranged in height from 2 to 18 cm (1- to 4-leaf stage) for postemergence treatments. Treated plants and controls were maintained in a greenhouse for 13 to 15 days, after which time all species were compared to controls and visually evaluated. Plant response ratings, summarized in Table C, are based on a scale of 0 to 100 where 0 is no effect and 100 is complete control. A dash (-) response means no test result.

foxtail, giant [4] = assay: Test C postemergence; assay type: in vivo, Setaria faberii; settings: for Foxtail, Giant plant response rating: Postemergence, 31 g ai/ha, scale 0 to 100; for Plant response rating, Foxtail, Giant: postemergence
Excerpt: as §3, §4

pigweed [5] = assay: Test C postemergence; assay type: in vivo, Amaranthus retroflexus; settings: for Pigweed plant response rating: Postemergence, 31 g ai/ha, scale 0 to 100; for Plant response rating, Pigweed: postemergence
Excerpt: as §3, §4

ragweed = assay: Test C postemergence; assay type: in vivo, Ambrosia elation; settings: postemergence
In short: as §2

soybean = assay: Test C postemergence; assay type: in vivo, Glycine max; settings: postemergence; for Soybean plant response rating: 62 g ai/ha, scale 0 to 100
Excerpt: as §3, §4

blackgrass [6] = assay: Test C preemergence; assay type: in vivo, Alopecurus myosuroides
Excerpt: as §3, §4

galium = assay: Test C preemergence; assay type: in vivo, Galium aparine
In short: as §2

johnsongrass = assay: Test C preemergence; assay type: in vivo, Sorghum halepense
In short: as §2

pigweed [7] = assay: Test C preemergence; assay type: in vivo, Amaranthus retroflexus
In short: as §2

[8] = Preemergence, 1000 g ai/ha, 0 no effect, 100 complete control
[9] = Postemergence, 1000 g ai/ha, visual rating after approx. 10 days, 0 to 100 scale (0 no effect, 100 complete control)
[10] = 250 g ai/ha, scale 0 to 100 (0 no effect, 100 complete control)
[11] = 62 g ai/ha, scale 0 to 100, 0 no effect, 100 complete control
[12] = 125 g ai/ha, scale 0 to 100, 0 no effect, 100 complete control
[13] = Preemergence, 500 g ai/ha, 0 no effect, 100 complete control
[14] = preemergence, 125 g ai/ha, visual injury, approx. 10 days
[15] = Postemergence, 500 g ai/ha, visual rating after approx. 10 days, 0 to 100 scale (0 no effect, 100 complete control)
[16] = postemergence, 125 g ai/ha, about 10 days, visual rating on 0 to 100 scale (0 no effect, 100 complete control)
[17] = preemergence, 31 g ai/ha, scale 0 to 100 (0 no effect, 100 complete control), 13 to 15 days
[18] = preemergence, 62 g ai/ha, 13 to 15 days, scale 0 to 100, 0 = no effect, 100 = complete control
[19] = preemergence, 125 g ai/ha, scale 0 to 100, 0 is no effect, 100 is complete control

CCCNC(=O)c1cc(CC)n(Cc2cccc(OC(F)(F)F)c2)n1 [Compound 27]
Foxtail, Giant plant response rating (foxtail, giant [1]; [8]): 90 | Pigweed plant response rating (pigweed [2]; [8]): 90 | Crabgrass, Large plant response rating (crabgrass, large; [9]): 80 | Corn plant response rating (corn; [9]): 60 | Blackgrass plant response rating (blackgrass [3]): 10 | Plant response rating, Blackgrass (blackgrass [3]; [10]): 20 | Plant response rating, Blackgrass (blackgrass [3]; [11]): 15 | Plant response rating, Blackgrass (blackgrass [3]; [12]): 15 | Wheat plant response rating (wheat): 15 | Plant response rating, Wheat (wheat; [10]): 20 | Plant response rating, Wheat (wheat; [12]): 15 | Foxtail, Giant plant response rating (foxtail, giant [4]): 0 | Plant response rating, Foxtail, Giant (foxtail, giant [4]; [10]): 20 | Plant response rating, Foxtail, Giant (foxtail, giant [4]; [11]): 0 | Plant response rating, Foxtail, Giant (foxtail, giant [4]; [12]): 10 | Pigweed plant response rating (pigweed [5]): 40 | Plant response rating, Pigweed (pigweed [5]; [10]): 50 | Plant response rating, Pigweed (pigweed [5]; [11]): 40 | Plant response rating, Pigweed (pigweed [5]; [12]): 40 | Plant response rating, Ragweed (ragweed; [10]): 10 | Plant response rating, Ragweed (ragweed; [11]): 0 | Plant response rating, Ragweed (ragweed; [12]): 5 | Soybean plant response rating (soybean): 65 | Plant response rating, Soybean (soybean; [10]): 75 | Plant response rating, Soybean (soybean; [12]): 70

CCc1cc(C(=O)NOC(C)C)nn1Cc1cccc(OC(F)(F)F)c1 [Compound 70]
Foxtail, Giant plant response rating (foxtail, giant [1]; [13]): 100 | Foxtail, Giant plant response rating (foxtail, giant [1]; [14]): 90 | Pigweed plant response rating (pigweed [2]; [13]): 100 | Pigweed plant response rating (pigweed [2]; [14]): 100 | Crabgrass, Large plant response rating (crabgrass, large; [15]): 90 | Crabgrass, Large plant response rating (crabgrass, large; [16]): 90 | Corn plant response rating (corn; [15]): 70 | Corn plant response rating (corn; [16]): 60 | Plant response rating (scale of 0 to 100), Blackgrass (blackgrass [6]; Preemergence, 250 g ai/ha): 85 | Blackgrass plant response rating (blackgrass [6]; [17]): 65 | Plant response rating, Blackgrass (blackgrass [6]; [18]): 65 | Blackgrass plant response rating (blackgrass [6]; [19]): 65 | Plant response rating (scale of 0 to 100), Galium (galium; Preemergence, 250 g ai/ha): 98 | Galium plant response rating (galium; [17]): 65 | Plant response rating, Galium (galium; [18]): 95 | Galium plant response rating (galium; [19]): 98 | Plant response rating (scale of 0 to 100), Johnsongrass (johnsongrass; Preemergence, 250 g ai/ha): 95 | Johnsongrass plant response rating (johnsongrass; [17]): 20 | Plant response rating, Johnsongrass (johnsongrass; [18]): 65 | Johnsongrass plant response rating (johnsongrass; [19]): 80 | Plant response rating (scale of 0 to 100), Pigweed (pigweed [7]; Preemergence, 250 g ai/ha): 100 | Pigweed plant response rating (pigweed [7]; [17]): 100 | Plant response rating, Pigweed (pigweed [7]; [18]): 100 | Pigweed plant response rating (pigweed [7]; [19]): 100 | Blackgrass plant response rating (blackgrass [3]): 0 | Plant response rating, Blackgrass (blackgrass [3]; [10]): 25 | Plant response rating, Blackgrass (blackgrass [3]; [11]): 5 | Wheat plant response rating (wheat): 15 | Plant response rating, Wheat (wheat; [10]): 25 | Plant response rating, Wheat (wheat; [12]): 20 | Foxtail, Giant plant response rating (foxtail, giant [4]): 5 | Plant response rating, Foxtail, Giant (foxtail, giant [4]; [10]): 25 | Plant response rating, Foxtail, Giant (foxtail, giant [4]; [11]): 10 | Plant response rating, Foxtail, Giant (foxtail, giant [4]; [12]): 15 | Pigweed plant response rating (pigweed [5]): 60 | Plant response rating, Pigweed (pigweed [5]; [10]): 75 | Plant response rating, Pigweed (pigweed [5]; [11]): 65 | Plant response rating, Pigweed (pigweed [5]; [12]): 70 | Plant response rating, Ragweed (ragweed; [10]): 65 | Plant response rating, Ragweed (ragweed; [11]): 60 | Plant response rating, Ragweed (ragweed; [12]): 65 | Soybean plant response rating (soybean): 55 | Plant response rating, Soybean (soybean; [10]): 65 | Plant response rating, Soybean (soybean; [12]): 55
